# Tests used:
# Experiment in all cases: relative viability (nuclei count vs DMSO), 5 days (fraction); higher = more cells survive
# Alisertib = compound: COc1cc(Nc2ncc3c(n2)-c2ccc(Cl)cc2C(c2c(F)cccc2OC)=NC3)ccc1C(=O)O [Alisertib]
# In short: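 Viability here means nuclei in treated wells divided by nuclei in vehicle wells, reported as the median across plates. Only plates with control CV below 25% and at least one doubling passed. Lung cancer cell lines in 1536-well plates were exposed to five √10-spaced library-drug doses for 5 days and counted from 4× Hoechst images in MetaXpress.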
# Alisertib + Trametinib = compound: COc1cc(Nc2ncc3c(n2)-c2ccc(Cl)cc2C(c2c(F)cccc2OC)=NC3)ccc1C(=O)O [Alisertib] + CC(=O)Nc1cccc(-n2c(=O)n(C3CC3)c(=O)c3c(Nc4ccc(I)cc4F)n(C)c(=O)c(C)c32)c1 [Trametinib] (partner 0.02 µM)
# In short: (§1)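 Lung cancer cell lines in 1536-well plates were dosed by pin tool the day after seeding, either with one drug alone or with a fixed anchor-drug dose plus five library-drug doses (not always all listed) in √10 steps. After 5 days, cells were fixed and their nuclei stained in one step (final 0.05% Triton X-100, 1% formaldehyde, 1 ug/ml Hoechst), then counted on 4× images. Relative viability is the nuclei count in treated wells divided by that in vehicle wells. Values are medians of duplicate plates.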
# Alisertib + Palbociclib = compound: COc1cc(Nc2ncc3c(n2)-c2ccc(Cl)cc2C(c2c(F)cccc2OC)=NC3)ccc1C(=O)O [Alisertib] + CC(=O)c1c(C)c2cnc(Nc3ccc(N4CCNCC4)cn3)nc2n(C2CCCC2)c1=O [Palbociclib] (partner 0.5 µM)
# In short: as §1
# Alisertib + Luminespib = compound: COc1cc(Nc2ncc3c(n2)-c2ccc(Cl)cc2C(c2c(F)cccc2OC)=NC3)ccc1C(=O)O [Alisertib] + CCNC(=O)c1noc(-c2cc(C(C)C)c(O)cc2O)c1-c1ccc(CN2CCOCC2)cc1 [Luminespib] (partner 0.01 µM)
# In short: as §1
# Alisertib + Foretinib = compound: COc1cc(Nc2ncc3c(n2)-c2ccc(Cl)cc2C(c2c(F)cccc2OC)=NC3)ccc1C(=O)O [Alisertib] + COc1cc2c(Oc3ccc(NC(=O)C4(C(=O)Nc5ccc(F)cc5)CC4)cc3F)ccnc2cc1OCCCN1CCOCC1 [Foretinib] (partner 0.25 µM)
# In short: as §1
# Alisertib + OSI-027 = compound: COc1cc(Nc2ncc3c(n2)-c2ccc(Cl)cc2C(c2c(F)cccc2OC)=NC3)ccc1C(=O)O [Alisertib] + COc1cccc2cc(-c3nc([C@H]4CC[C@H](C(=O)O)CC4)n4ncnc(N)c34)[nH]c12 [OSI-027] (partner 0.5 µM)
# In short: as §1
# Alisertib + Tozasertib = compound: COc1cc(Nc2ncc3c(n2)-c2ccc(Cl)cc2C(c2c(F)cccc2OC)=NC3)ccc1C(=O)O [Alisertib] + Cc1cc(Nc2cc(N3CCN(C)CC3)nc(Sc3ccc(NC(=O)C4CC4)cc3)n2)n[nH]1 [Tozasertib] (partner 0.1 µM)
# In short: as §1
# Alisertib + Dasatinib = compound: COc1cc(Nc2ncc3c(n2)-c2ccc(Cl)cc2C(c2c(F)cccc2OC)=NC3)ccc1C(=O)O [Alisertib] + Cc1nc(Nc2ncc(C(=O)Nc3c(C)cccc3Cl)s2)cc(N2CCN(CCO)CC2)n1 [Dasatinib] (partner 0.075 µM)
# In short: as §1
# Alisertib + Phenformin = compound: COc1cc(Nc2ncc3c(n2)-c2ccc(Cl)cc2C(c2c(F)cccc2OC)=NC3)ccc1C(=O)O [Alisertib] + N=C(N)NC(=N)NCCc1ccccc1 [Phenformin] (partner 250 µM)
# In short: as §1
# Alisertib + AZD7762 = compound: COc1cc(Nc2ncc3c(n2)-c2ccc(Cl)cc2C(c2c(F)cccc2OC)=NC3)ccc1C(=O)O [Alisertib] + NC(=O)Nc1cc(-c2cccc(F)c2)sc1C(=O)N[C@H]1CCCNC1 [AZD7762] (partner 0.2 µM)
# In short: as §1
# Alisertib + Pemetrexed = compound: COc1cc(Nc2ncc3c(n2)-c2ccc(Cl)cc2C(c2c(F)cccc2OC)=NC3)ccc1C(=O)O [Alisertib] + Nc1nc2[nH]cc(CCc3ccc(C(=O)N[C@@H](CCC(=O)O)C(=O)O)cc3)c2c(=O)[nH]1 [Pemetrexed] (partner 0.2 µM)
# In short: as §1
# Alisertib + Decitabine = compound: COc1cc(Nc2ncc3c(n2)-c2ccc(Cl)cc2C(c2c(F)cccc2OC)=NC3)ccc1C(=O)O [Alisertib] + Nc1ncn([C@H]2C[C@H](O)[C@@H](CO)O2)c(=O)n1 [Decitabine] (partner 2 µM)
# In short: as §1
# Alisertib + Vorinostat = compound: COc1cc(Nc2ncc3c(n2)-c2ccc(Cl)cc2C(c2c(F)cccc2OC)=NC3)ccc1C(=O)O [Alisertib] + O=C(CCCCCCC(=O)Nc1ccccc1)NO [Vorinostat] (partner 1 µM)
# In short: as §1
# Alisertib + Olaparib = compound: COc1cc(Nc2ncc3c(n2)-c2ccc(Cl)cc2C(c2c(F)cccc2OC)=NC3)ccc1C(=O)O [Alisertib] + O=C(c1cc(Cc2n[nH]c(=O)c3ccccc23)ccc1F)N1CCN(C(=O)C2CC2)CC1 [Olaparib] (partner 8 µM)
# In short: as §1
cell line,measurement,setting,value
SW 900,relative viability,Alisertib; 0.005 µM,0.635
same,relative viability,Alisertib; 0.01581 µM,0.81
same,relative viability,Alisertib; 0.05 µM,0.506
same,relative viability,Alisertib; 0.1581 µM,0.264
same,relative viability,Alisertib; 0.5 µM,0.24
same,relative viability,Alisertib + Trametinib; first compound 0.005 µM,0.917
same,relative viability,Alisertib + Trametinib; first compound 0.01581 µM,0.827
same,relative viability,Alisertib + Trametinib; first compound 0.05 µM,0.374
same,relative viability,Alisertib + Trametinib; first compound 0.1581 µM,0.217
same,relative viability,Alisertib + Trametinib; first compound 0.5 µM,0.144
same,relative viability,Alisertib + Palbociclib; first compound 0.005 µM,0.461
same,relative viability,Alisertib + Palbociclib; first compound 0.01581 µM,0.475
same,relative viability,Alisertib + Palbociclib; first compound 0.05 µM,0.303
same,relative viability,Alisertib + Palbociclib; first compound 0.1581 µM,0.245
same,relative viability,Alisertib + Palbociclib; first compound 0.5 µM,0.227
same,relative viability,Alisertib + Luminespib; first compound 0.005 µM,0.16
same,relative viability,Alisertib + Luminespib; first compound 0.01581 µM,0.167
same,relative viability,Alisertib + Luminespib; first compound 0.05 µM,0.182
same,relative viability,Alisertib + Luminespib; first compound 0.1581 µM,0.188
same,relative viability,Alisertib + Luminespib; first compound 0.5 µM,0.176
same,relative viability,Alisertib + Foretinib; first compound 0.005 µM,0.68
same,relative viability,Alisertib + Foretinib; first compound 0.01581 µM,0.832
same,relative viability,Alisertib + Foretinib; first compound 0.05 µM,0.598
same,relative viability,Alisertib + Foretinib; first compound 0.1581 µM,0.194
same,relative viability,Alisertib + Foretinib; first compound 0.5 µM,0.186
same,relative viability,Alisertib + OSI-027; first compound 0.005 µM,0.532
same,relative viability,Alisertib + OSI-027; first compound 0.01581 µM,0.399
same,relative viability,Alisertib + OSI-027; first compound 0.05 µM,0.543
same,relative viability,Alisertib + OSI-027; first compound 0.1581 µM,0.167
same,relative viability,Alisertib + OSI-027; first compound 0.5 µM,0.111
same,relative viability,Alisertib + Tozasertib; first compound 0.005 µM,0.557
same,relative viability,Alisertib + Tozasertib; first compound 0.01581 µM,0.54
same,relative viability,Alisertib + Tozasertib; first compound 0.05 µM,0.375
same,relative viability,Alisertib + Tozasertib; first compound 0.1581 µM,0.241
same,relative viability,Alisertib + Tozasertib; first compound 0.5 µM,0.191
same,relative viability,Alisertib + Dasatinib; first compound 0.005 µM,0.494
same,relative viability,Alisertib + Dasatinib; first compound 0.01581 µM,0.435
same,relative viability,Alisertib + Dasatinib; first compound 0.05 µM,0.404
same,relative viability,Alisertib + Dasatinib; first compound 0.1581 µM,0.171
same,relative viability,Alisertib + Dasatinib; first compound 0.5 µM,0.172
same,relative viability,Alisertib + Phenformin; first compound 0.005 µM,0.434
same,relative viability,Alisertib + Phenformin; first compound 0.01581 µM,0.589
same,relative viability,Alisertib + Phenformin; first compound 0.05 µM,0.442
same,relative viability,Alisertib + Phenformin; first compound 0.1581 µM,0.18
same,relative viability,Alisertib + Phenformin; first compound 0.5 µM,0.141
same,relative viability,Alisertib + AZD7762; first compound 0.005 µM,0.568
same,relative viability,Alisertib + AZD7762; first compound 0.01581 µM,0.617
same,relative viability,Alisertib + AZD7762; first compound 0.05 µM,0.637
same,relative viability,Alisertib + AZD7762; first compound 0.1581 µM,0.232
same,relative viability,Alisertib + AZD7762; first compound 0.5 µM,0.17
same,relative viability,Alisertib + Pemetrexed; first compound 0.005 µM,0.445
same,relative viability,Alisertib + Pemetrexed; first compound 0.01581 µM,0.459
same,relative viability,Alisertib + Pemetrexed; first compound 0.05 µM,0.438
same,relative viability,Alisertib + Pemetrexed; first compound 0.1581 µM,0.178
same,relative viability,Alisertib + Pemetrexed; first compound 0.5 µM,0.194
same,relative viability,Alisertib + Decitabine; first compound 0.005 µM,0.419
same,relative viability,Alisertib + Decitabine; first compound 0.01581 µM,0.377
same,relative viability,Alisertib + Decitabine; first compound 0.05 µM,0.296
same,relative viability,Alisertib + Decitabine; first compound 0.1581 µM,0.213
same,relative viability,Alisertib + Decitabine; first compound 0.5 µM,0.255
same,relative viability,Alisertib + Vorinostat; first compound 0.005 µM,0.351
same,relative viability,Alisertib + Vorinostat; first compound 0.01581 µM,0.369
same,relative viability,Alisertib + Vorinostat; first compound 0.05 µM,0.476
same,relative viability,Alisertib + Vorinostat; first compound 0.1581 µM,0.221
same,relative viability,Alisertib + Vorinostat; first compound 0.5 µM,0.223
same,relative viability,Alisertib + Olaparib; first compound 0.005 µM,0.897
same,relative viability,Alisertib + Olaparib; first compound 0.01581 µM,0.648
same,relative viability,Alisertib + Olaparib; first compound 0.05 µM,0.306
same,relative viability,Alisertib + Olaparib; first compound 0.1581 µM,0.29
same,relative viability,Alisertib + Olaparib; first compound 0.5 µM,0.298

# From the supplement of paper PMC10307832
